Source: US7803792B2, “Quaternary ammonium compounds” (Asahi Kasei Pharma Corporation, priority 2002, dated 2010)

biological target: T1, human IBAT (Homo sapiens, UniProt Q12908); assay: In vitro assay of temporarily expressed human IBAT transporter using Cos 7 cells (Test Example 8); format: cell-based; conditions: Cos 7 cells temporarily expressing human IBAT; [3H] taurocholate 8 μM, 37° C., 60 minutes
T1 construct: expressed in transfected cells; host or cells: Cos 7
T1 sequence (Q12908 1-348): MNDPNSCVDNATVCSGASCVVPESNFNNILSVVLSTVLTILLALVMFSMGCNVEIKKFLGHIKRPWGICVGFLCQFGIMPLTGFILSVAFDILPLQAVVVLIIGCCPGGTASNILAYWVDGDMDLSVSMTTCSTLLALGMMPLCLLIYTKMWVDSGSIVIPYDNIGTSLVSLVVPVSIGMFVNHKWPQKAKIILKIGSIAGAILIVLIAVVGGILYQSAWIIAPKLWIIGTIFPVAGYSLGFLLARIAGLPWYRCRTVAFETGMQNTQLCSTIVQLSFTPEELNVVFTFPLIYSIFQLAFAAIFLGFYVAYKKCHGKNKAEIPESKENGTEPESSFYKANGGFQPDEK
Procedure: In Vitro Assay of Compounds Which Inhibit Temporarily Expressed Human IBAT Transporter or Rat IBAT Transporter Using Cos 7 Cells
In this test example, the in vitro assay of the compounds which inhibit temporarily expressed human IBAT transporter or rat IBAT transporter using Cos cells was carried out according to the method described in Am. J. Physiol., 274, G157-169.
That is, […] Cos 7 were inoculated on a 24-well cell plate. One day later, 0.3 μg per well of cDNA of a human IBAT or a rat IBAT was transfected by using FuGENE6 (manufactured by ROCHE PHARMACEUTICAL CO., LTD.). For the assay, the cells cultured for one day after the transfection were used and the following procedure was followed. The cells were washed once with an assay buffer, Hank's buffer solution containing 25 mM glucose and with 10 mM HEPES (pH 7.4), and then the assay buffer was replaced by an assay buffer to which the test compound was added. After adding [^3H] taurocholate to a final concentration of 8 μM, the cells were incubated at 37° C. for 60 minutes. [^3H] taurocholate was allowed to be incorporated in Cos 7 cells through human IBAT or rat IBAT. The reaction was stopped by washing twice with a buffer prepared by adding 1 mM taurocholate to the assay buffer and lyzing the cells with 0.2M NaOH. Measurement of radioactivity was carried out by introducing the cell lyzate in 4 ml of liquid scintillation cocktail, stirring the mixture well, and then measuring the radioactivity by a scintillation counter.

| IC50 [nM] | SMILES |
| --- | --- |
| 94 | CCCCC1(CCCC)CS(=O)(=O)c2ccc(N(C)C)cc2C(c2cccc(NC(=S)Nc3ccc(C[N+]4(CC)CCCC4)cc3)c2)N1 (centres unmarked) [Example 3568] |
| 68 | CCCCCC[N+](C)(C)Cc1ccc(NC(=S)Nc2cccc(C3NC(CCCC)(CCCC)CS(=O)(=O)c4ccc(N(C)C)cc43)c2)cc1 (centres unmarked) [Example 3410] |
| 42 | CCCCC1(CCCC)CS(=O)(=O)c2ccc(N(C)C)cc2C(c2cccc(NC(=S)Nc3ccc(C[n+]4c(C)cc(C)cc4C)cc3)c2)N1 (centres unmarked) [Example 5409] |
| 28 | CCCCC1(CCCC)CS(=O)(=O)c2ccc(N(C)C)cc2C(c2cccc(NC(=S)CCCCC[N+]34CCC(CC3)C(O)C4)c2)N1 (centres unmarked) [Example 3854] |
| 92 | CCCCC1(CCCC)CS(=O)(=O)c2ccc(N(C)C)cc2C(c2cccc(NC(=S)Nc3ccc(C[n+]4ccc(C(N)=O)cc4)cc3)c2)N1 (centres unmarked) [Example 3754] |
| 74 | CCCCC1(CCCC)CS(=O)(=O)c2ccc(N(C)C)cc2C(c2cccc(NC(=S)Nc3cccc(C[N+](C)(CC)Cc4ccccc4)c3)c2)N1 (centres unmarked) [Example 4260] |
| 69 | CCCCC1(CCCC)CS(=O)(=O)c2ccc(N(C)C)cc2C(c2cccc(NC(=S)Nc3ccc(C[n+]4cccc(Cl)c4)cc3)c2)N1 (centres unmarked) [Example 5418] |
| 73 | CCCCC1(CCCC)CS(=O)(=O)c2ccc(N(C)C)cc2C(c2cccc(NC(=S)Nc3cccc(C[n+]4ccc(CC)cc4)c3)c2)N1 (centres unmarked) [Example 4527] |
| 75 | CCCCCCCC[N+](C)(C)Cc1ccc(NC(=S)Nc2cccc(C3NC(CCCC)(CCCC)CS(=O)(=O)c4ccc(N(C)C)cc43)c2)cc1 (centres unmarked) [Example 3412] |
| 73 | CCCCC1(CCCC)CS(=O)(=O)c2ccc(N(C)C)cc2C(c2cccc(NC(=S)Nc3ccc(C[n+]4cccc(-c5cccs5)c4)cc3)c2)N1 (centres unmarked) [Example 3726] |
| 78 | CCCCC1(CCCC)CS(=O)(=O)c2ccc(N(C)C)cc2C(c2cccc(NC(=S)Nc3cccc(C[n+]4ccc5ccccc5c4)c3)c2)N1 (centres unmarked) [Example 4600] |
| 60 | CCCCC1(CCCC)CS(=O)(=O)c2ccc(N(C)C)cc2C(c2cccc(NC(=S)Nc3cccc(C[n+]4cccc5cc(C)ccc54)c3)c2)N1 (centres unmarked) [Example 4587] |
| 167 | CCCCC1(CCCC)CS(=O)(=O)c2ccc(N(C)C)cc2C(c2cccc(NC(=S)NCCCCCC[N+]34CCC(CC3)CC4)c2)N1 (centres unmarked) [Example 1810] |
| 88 | CCCCC1(CCCC)CS(=O)(=O)c2ccc(N(C)C)cc2C(c2cccc(NC(=S)Nc3ccc(C[n+]4cc(C)cc(C)c4)cc3)c2)N1 (centres unmarked) [Example 3729] |
| 85 | CCCCC1(CCCC)CS(=O)(=O)c2ccc(N(C)C)cc2C(c2cccc(NC(=S)Nc3ccc(C[N+](C)(C)C(C)c4ccccc4)cc3)c2)N1 (centres unmarked) [Example 3441] |
| 54 | CCCCC1(CCCC)CS(=O)(=O)c2ccc(N(C)C)cc2C(c2cccc(NC(=S)Nc3ccc(C[N+]4(C)CCC(O)CC4)cc3)c2)N1 (centres unmarked) [Example 3599] |
| 52 | CCCCC1(CCCC)CS(=O)(=O)c2ccc(N(C)C)cc2C(c2cccc(NC(=S)Nc3ccc(C[n+]4cccc(Cc5ccccc5)c4)cc3)c2)N1 (centres unmarked) [Example 3725] |
| 67 | CCCCC1(CCCC)CS(=O)(=O)c2ccc(N(C)C)cc2C(c2cccc(NC(=S)Nc3cccc(C[N+](C)(C)CCc4ccccc4)c3)c2)N1 (centres unmarked) [Example 4259] |
| 46 | CCCCC1(CCCC)CS(=O)(=O)c2ccc(N(C)C)cc2C(c2cccc(NC(=S)Nc3cccc(C[N+](CC)(CC)CCCC)c3)c2)N1 (centres unmarked) [Example 4233] |
| 78 | CCCCC1(CCCC)CS(=O)(=O)c2ccc(N(C)C)cc2C(c2cccc(NC(=S)Nc3cccc(C[N+](C)(CCC)CCC)c3)c2)N1 (centres unmarked) [Example 4243] |
| 70 | CCCCC1(CCCC)CS(=O)(=O)c2ccc(N(C)C)cc2C(c2cccc(NC(=S)Nc3ccc(C[N+](C)(C)CCOC(=O)c4ccccc4)cc3)c2)N1 (centres unmarked) [Example 3558] |
| 68 | CCCCC1(CCCC)CS(=O)(=O)c2ccc(N(C)C)cc2C(c2cccc(NC(=S)Nc3ccc(C[N+](C)(C)CC(C)O)cc3)c2)N1 (centres unmarked) [Example 3454] |
| 30 | CCCCC1(CCCC)CS(=O)(=O)c2ccc(N(C)C)cc2C(c2cccc(NC(=S)Nc3ccc(C[n+]4ccc(-c5ccccc5)cc4)cc3)c2)N1 (centres unmarked) [Example 3717] |
